In brackets after ≈: the same amount, converted by molar mass.
Legend:
Candida albicans = test: Antifungal activity against Candida albicans; assay type: functional
Cryptococcus neoformans = test: Antifungal activity against Cryptococcus neoformans; assay type: functional

C[C@@H]1O[C@@H](O[C@H]2[C@H](O[C@H]3CC[C@@]4(C)[C@@H](CC[C@]5(C)[C@@H]4CC=C4[C@@H]6CC(C)(C)CC[C@]6(C(=O)O)CC[C@]45C)[C@]3(C)CO)OC[C@H](O)[C@@H]2O)[C@H](O)[C@H](O)[C@H]1O [ALPHA-HEDERIN]
MIC (Candida albicans): 6.25 µg/mL (≈ 8.32 µM)
MIC (Cryptococcus neoformans): 25 µg/mL (≈ 33.3 µM)

— ChEMBL document CHEMBL1150227, “A new dammarane-type triterpene glycoside from Polyscias fulva” (2001)
